Substitutions are numbered along the chain they refer to. Like-named read-outs stand apart in the source and are kept apart here. Where a SMILES comes first, the peptide text is derived from it. [ ]: non-standard residue; d: D form. The star is where a group is joined. 5FAM = O=C1OC2(c3ccc(O)cc3Oc3cc(O)ccc32)c2ccc(C(=O)*)cc21; pT = C[C@@H](OP(=O)(O)O)[C@H](N)C(=O)O; pS = N[C@@H](COP(=O)(O)O)C(=O)O
Key:
[1] = target: T1, TOPBP1-BRCT0,1,2 WT (Homo sapiens, UniProt Q92547); test: Fluorescence polarisation titration, TOPBP1-BRCT0,1,2 wild-type; format: binding
T1 construct: made in house; host or cells: E. coli BL21(DE3)
T1 sequence (Q92547 1-290 limits assumed): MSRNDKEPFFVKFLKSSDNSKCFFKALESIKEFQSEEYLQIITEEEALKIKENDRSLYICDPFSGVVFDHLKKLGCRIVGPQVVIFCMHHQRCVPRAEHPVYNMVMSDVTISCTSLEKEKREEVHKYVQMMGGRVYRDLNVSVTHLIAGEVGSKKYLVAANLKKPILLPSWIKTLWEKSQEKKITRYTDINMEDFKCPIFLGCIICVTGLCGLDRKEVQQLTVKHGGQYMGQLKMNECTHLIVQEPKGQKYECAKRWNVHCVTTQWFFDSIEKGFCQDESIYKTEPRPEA
Method: (§1) Fluorescein-labelled peptides (Peptide Protein Research Ltd, Fareham, UK) at a concentration of 200 nM, were incubated at room temperature with increasing concentrations of recombinant protein in 25 mM HEPES pH 7.5, 150 mM NaCl, 1 mM EDTA, 0.25 mM TCEP, 0.02% (v/v) Tween-20. Four parallel replicates of each titration were dispensed into a black 96-well polypropylene plate (VWR, Lutterworth, UK) for measurement. Fluorescence polarisation was measured in a CLARIOstar multimode microplate reader (BMG Labtech, Aylesbury, UK). Binding curves represent the mean of 4 independent experiments, with error bars indicating one standard deviation. All data were fitted by non-linear regression, to a one site-specific binding model in Prism seven for Mac OS X (v 7.0d, GraphPad Software) in order to calculate the reported dissociation constants (Kd). Low-affinity non-specific responses for which a binding curve could not be determined are marked as ND.

[2] = target: T2, TOPBP1-BRCT0,1,2 K155E (Homo sapiens, UniProt Q92547, K155E); test: Fluorescence polarisation titration, TOPBP1-BRCT0,1,2 K155E (BRCT1 mutant); format: binding
T2 construct: made in house; host or cells: E. coli BL21(DE3)
T2 sequence (Q92547 1-290 K155E limits assumed): as the sequence (Q92547 1-290 limits assumed) above, with K155E counted along it
Method: as §1

[3] = target: T3, TOPBP1-BRCT7,8 (Homo sapiens, UniProt Q92547); test: Fluorescence polarisation titration, TOPBP1-BRCT7,8; format: binding
T3 construct: made in house; host or cells: E. coli BL21(DE3)
T3 sequence (Q92547 1264-1493 limits assumed): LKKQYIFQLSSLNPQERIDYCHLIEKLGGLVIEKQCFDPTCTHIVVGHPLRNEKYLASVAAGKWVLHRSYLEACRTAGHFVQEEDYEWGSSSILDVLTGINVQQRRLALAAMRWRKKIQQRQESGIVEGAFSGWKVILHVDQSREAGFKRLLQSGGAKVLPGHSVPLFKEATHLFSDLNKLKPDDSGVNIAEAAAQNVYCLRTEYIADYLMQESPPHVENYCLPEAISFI
Method: as §1

[4] = target: T4, Rad4-BRCT3,4 (Schizosaccharomyces pombe, UniProt P32372); test: Fluorescence polarisation titration, Rad4-BRCT3,4; settings: FP, fluorescein-peptide 200 nM, HEPES pH 7.5, room temperature; ND = low-affinity non-specific response, no binding curve
T4 construct: made in house; host or cells: E. coli BL21(DE3)
T4 sequence (P32372 291-494 limits assumed): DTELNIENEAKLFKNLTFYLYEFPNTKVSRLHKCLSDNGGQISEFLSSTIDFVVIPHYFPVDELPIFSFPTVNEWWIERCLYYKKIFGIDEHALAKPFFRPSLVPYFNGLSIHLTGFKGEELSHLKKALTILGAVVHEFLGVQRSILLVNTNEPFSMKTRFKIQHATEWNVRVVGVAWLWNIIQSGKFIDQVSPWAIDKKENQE
Method: as §1

[5] = target: T5, Rad4-BRCT1,2 WT (Schizosaccharomyces pombe, UniProt P32372); test: Fluorescence polarisation titration, Rad4-BRCT1,2 wild-type; settings: FP, fluorescein-peptide 200 nM, HEPES pH 7.5, room temperature, one-site fit, 4 replicates; ND = low-affinity non-specific response, no binding curve
T5 construct: made in house; host or cells: E. coli BL21(DE3)
T5 sequence (P32372 1-186 limits assumed): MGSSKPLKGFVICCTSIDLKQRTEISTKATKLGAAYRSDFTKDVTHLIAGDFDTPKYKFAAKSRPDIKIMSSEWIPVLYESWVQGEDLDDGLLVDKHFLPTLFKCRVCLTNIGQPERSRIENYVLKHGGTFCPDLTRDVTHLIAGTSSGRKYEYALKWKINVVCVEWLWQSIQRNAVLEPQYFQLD
Method: as §1

[6] = target: T6, SpNbs1 (Schizosaccharomyces pombe, UniProt O43070); test: Fluorescence polarisation titration, SpNbs1; format: binding, S. pombe; settings: FP, fluorescein-peptide 200 nM, HEPES pH 7.5, room temperature, one-site fit, 4 replicates
T6 construct: made in house; host or cells: E. coli BL21(DE3)
T6 sequence (O43070 1-613): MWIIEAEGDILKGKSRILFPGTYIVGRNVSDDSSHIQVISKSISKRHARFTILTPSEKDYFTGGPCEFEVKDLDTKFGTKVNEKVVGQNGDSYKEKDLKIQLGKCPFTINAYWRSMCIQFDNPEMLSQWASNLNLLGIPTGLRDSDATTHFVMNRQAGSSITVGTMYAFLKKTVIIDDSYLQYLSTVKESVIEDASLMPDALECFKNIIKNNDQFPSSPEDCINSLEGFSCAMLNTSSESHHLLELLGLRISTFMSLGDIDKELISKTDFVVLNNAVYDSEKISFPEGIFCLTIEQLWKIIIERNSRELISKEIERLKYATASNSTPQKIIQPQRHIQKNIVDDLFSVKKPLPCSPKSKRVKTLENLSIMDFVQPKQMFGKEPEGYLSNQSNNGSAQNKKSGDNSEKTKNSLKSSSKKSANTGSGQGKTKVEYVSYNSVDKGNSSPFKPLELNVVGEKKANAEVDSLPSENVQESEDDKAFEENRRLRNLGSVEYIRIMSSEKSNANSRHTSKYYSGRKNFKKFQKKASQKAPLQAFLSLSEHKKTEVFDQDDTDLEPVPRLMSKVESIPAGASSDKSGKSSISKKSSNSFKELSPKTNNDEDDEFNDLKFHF
Method: as §1

[7] = target: T7, Rad4-BRCT1,2 K151E (Schizosaccharomyces pombe, UniProt P32372, K151E); test: Fluorescence polarisation titration, Rad4-BRCT1,2 K151E (BRCT2 mutant); settings: FP, fluorescein-peptide 200 nM, HEPES pH 7.5, room temperature; ND = low-affinity non-specific response, no binding curve
T7 construct: made in house; host or cells: E. coli BL21(DE3)
T7 sequence (P32372 1-186 K151E limits assumed): T5 sequence (P32372 1-186 limits assumed) with K151E
Method: as §1

[8] = target: T8, Rad4-BRCT1,2 K56E (Schizosaccharomyces pombe, UniProt P32372, K56E); test: Fluorescence polarisation titration, Rad4-BRCT1,2 K56E (BRCT1 mutant); format: binding; settings: FP, fluorescein-peptide 200 nM, HEPES pH 7.5, room temperature, one-site fit, 4 replicates
T8 construct: made in house; host or cells: E. coli BL21(DE3)
T8 sequence (P32372 1-186 K56E limits assumed): T5 sequence (P32372 1-186 limits assumed) with K56E
Method: as §1

[9] = target: T9, TOPBP1-BRCT0,1,2 K250E (Homo sapiens, UniProt Q92547, K250E); test: Fluorescence polarisation titration, TOPBP1-BRCT0,1,2 K250E (BRCT2 mutant); format: binding
T9 construct: made in house; host or cells: E. coli BL21(DE3)
T9 sequence (Q92547 1-290 K250E limits assumed): as the sequence (Q92547 1-290 limits assumed) above, with K250E counted along it
Method: as §1

[10] = target: T10, TOPBP1-BRCT4,5 (Homo sapiens, UniProt Q92547); test: Fluorescence polarisation titration, TOPBP1-BRCT4,5; format: binding
T10 construct: made in house; host or cells: E. coli BL21(DE3)
T10 sequence (Q92547 549-746 limits assumed): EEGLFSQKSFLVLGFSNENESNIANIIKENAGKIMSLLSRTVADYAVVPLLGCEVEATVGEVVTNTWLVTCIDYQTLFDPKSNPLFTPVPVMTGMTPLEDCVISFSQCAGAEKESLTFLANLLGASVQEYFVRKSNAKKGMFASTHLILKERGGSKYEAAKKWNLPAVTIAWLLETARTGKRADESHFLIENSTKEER
Method: as §1

[11] = FP, fluorescein-peptide 200 nM, HEPES pH 7.5, room temperature, one-site fit, 4 replicates, ND = low-affinity non-specific response, no binding curve
[12] = FP, fluorescein-peptide 200 nM, HEPES pH 7.5, room temperature, one-site fit, 4 replicates
[13] = FP, fluorescein-peptide 200 nM, HEPES pH 7.5, room temperature, one-site fit, 4 replicates, read-out: Kd

## CC[C@H](C)[C@H](NC(=O)[C@H](CCC(N)=O)NC(=O)[C@H](CCCCN)NC(=O)[C@H](Cc1c[nH]cn1)NC(=O)[C@@H](NC(=O)[C@@H]1CCCN1C(=O)[C@@H](NC(=O)[C@H](CCC(=O)O)NC(=O)[C@H](C)NC(=O)[C@@H](NC(=O)[C@H](CO)NC(=O)[C@H](CCCCN)NC(=O)[C@@H](NC(=O)[C@H](CC(C)C)NC(=O)CNC(=O)[C@H](Cc1ccc(O)cc1)NC(=O)CNC(=O)c1ccc2c(c1)C(=O)OC21c2ccc(O)cc2Oc2cc(O)ccc21)[C@@H](C)O)C(C)C)[C@@H](C)OP(=O)(O)O)C(C)C)C(=O)N[C@@H](CO)C(=O)O [Treslin pT969] (5FAM-GYGLTKSVAE[pT]PVHKQIS-OH)
[1]; read-out: Kd
  Kd: 940 ± 60 nM
[2]; read-out: Kd
  Kd: 1000 ± 60 nM

## CC[C@H](C)[C@H](NC(=O)[C@H](CO)NC(=O)[C@H](CCC(=O)O)NC(=O)[C@H](CC(=O)O)NC(=O)[C@H](CCC(=O)O)NC(=O)CNC(=O)[C@H](Cc1ccc(O)cc1)NC(=O)CNC(=O)c1ccc2c(c1)C(=O)OC21c2ccc(O)cc2Oc2cc(O)ccc21)C(=O)N[C@@H](Cc1ccc(O)cc1)C(=O)N[C@@H](Cc1ccccc1)C(=O)N[C@H](C(=O)N1CCC[C@H]1C(=O)N[C@@H](CCC(=O)O)C(=O)N[C@@H](CC(C)C)C(=O)N[C@@H](Cc1ccc(O)cc1)C(=O)N[C@@H](CC(=O)O)C(=O)N1CCC[C@H]1C(=O)N[C@@H](CCC(=O)O)C(=O)O)[C@@H](C)OP(=O)(O)O [FANCJ pT1133, reference compound] (5FAM-GYGEDESIYF[pT]PELYDPE-OH)
[3]
  Kd: 140 ± 10 nM

## CC(C)[C@H](NC(=O)CNC(=O)[C@H](Cc1ccc(O)cc1)NC(=O)CNC(=O)c1ccc2c(c1)C(=O)OC21c2ccc(O)cc2Oc2cc(O)ccc21)C(=O)N[C@@H](CCC(=O)O)C(=O)NCC(=O)N[C@@H](CC(=O)O)C(=O)N[C@@H](Cc1c[nH]cn1)C(=O)N[C@@H](CO)C(=O)N[C@@H](COP(=O)(O)O)C(=O)N[C@@H](CC(=O)O)C(=O)N[C@H](C(=O)N[C@@H](CCC(=O)O)C(=O)N[C@@H](CCC(=O)O)C(=O)N[C@@H](CCC(=O)O)C(=O)N[C@H](C(=O)N[C@H](C(=O)N[C@@H](CO)C(=O)O)C(C)C)C(C)C)[C@@H](C)OP(=O)(O)O [Mdb1 pS216, pT218] (5FAM-GYGVEGDHS[pS]D[pT]EEEVVS-OH)
[4]
  Kd: no binding was observed
[5]
  Kd: no binding was observed
[6]
  Kd: sub-micromolar affinity

## CSCC[C@H](NC(=O)[C@@H](NC(=O)CNC(=O)CNC(=O)[C@H](Cc1ccc(O)cc1)NC(=O)CNC(=O)c1ccc2c(c1)C(=O)OC21c2ccc(O)cc2Oc2cc(O)ccc21)C(C)C)C(=O)N[C@H](C(=O)N[C@H](C(=O)N1CCC[C@H]1C(=O)N[C@@H](CC(N)=O)C(=O)N[C@H](C(=O)N1CCC[C@H]1C(=O)N[C@@H](CCC(N)=O)C(=O)N[C@@H](CCCCN)C(=O)N1CCC[C@H]1C(=O)N[C@@H](CC(N)=O)C(=O)N[C@@H](CC(C)C)C(=O)N[C@@H](CCC(N)=O)C(=O)O)[C@@H](C)OP(=O)(O)O)C(C)C)[C@@H](C)O [Mdb1 pT113] (5FAM-GYGGVMTVPN[pT]PQKPNLQ-OH)
[4]
  Kd: no binding
[5]
  Kd: low micromolar affinity
[7]
  Kd: substantially reduced compared to wild-type
[8]
  Kd: largely unaffected

## CC[C@H](C)[C@H](NC(=O)[C@H](CCC(=O)O)NC(=O)[C@H](CC(=O)O)NC(=O)CNC(=O)[C@H](CCCCN)NC(=O)[C@H](CCC(=O)O)NC(=O)[C@@H]1CCCN1C(=O)[C@H](COP(=O)(O)O)NC(=O)[C@H](CCC(=O)O)NC(=O)[C@H](CCC(=O)O)NC(=O)[C@@H](NC(=O)[C@@H](NC(=O)CNC(=O)[C@@H](NC(=O)[C@H](CC(=O)O)NC(=O)CNC(=O)[C@H](Cc1ccc(O)cc1)NC(=O)CNC(=O)c1ccc2c(c1)C(=O)OC21c2ccc(O)cc2Oc2cc(O)ccc21)[C@@H](C)CC)C(C)C)C(C)C)C(=O)O [Treslin pT1001] (5FAM-GYGDIGVVEE[pS]PEKGDEI-OH)
[9]; read-out: Kd
  Kd: 350 ± 130 nM
[1]; read-out: Kd
  Kd: 600 ± 30 nM
[2]; read-out: Kd
  Kd: 730 ± 40 nM

## CC[C@H](C)[C@H](NC(=O)CNC(=O)[C@H](Cc1ccc(O)cc1)NC(=O)[C@H](CCCCN)NC(=O)[C@H](CC(=O)O)NC(=O)[C@H](CCC(=O)O)NC(=O)[C@@H]1CCCN1C(=O)[C@@H](NC(=O)[C@H](CC(=O)O)NC(=O)[C@H](CCCCN)NC(=O)[C@@H](NC(=O)[C@H](CC(C)C)NC(=O)[C@@H](NC(=O)[C@@H]1CCCN1C(=O)CNC(=O)CNC(=O)[C@H](Cc1ccc(O)cc1)NC(=O)CN)C(C)C)C(C)C)[C@@H](C)OP(=O)(O)O)C(=O)O [RHNO1 pT202] (H-GYGGPVLVKD[pT]PEDKYGI-OH; N-terminus and C-terminus assumed)
[10]; [11]
  Kd: did not show any measurable binding
[9]; [12]
  Kd: comparable affinity to the wild-type
[9]; [13]
  Kd: < 200 nM
[1]; [12]
  Kd: sub-micromolar affinity
[1]; [13]
  Kd: < 200 nM
[1]; RHNO1-pT202 versus RAD9-pS387, binding to TOPBP1 BRCT1
  Fold tighter binding than RAD9-pS387: ~ 10 fold
[3]; FP, fluorescein-peptide 200 nM, HEPES pH 7.5, room temperature, one-site fit, ND = low-affinity non-specific response, no binding curve
  Kd: did not show any measurable binding
[2]; [11]
  Kd: no binding was observed

## CC[C@H](C)[C@H](NC(=O)[C@H](CCC(=O)O)NC(=O)[C@H](CCC(=O)O)NC(=O)[C@@H]1CCCN1C(=O)[C@H](COP(=O)(O)O)NC(=O)[C@@H]1CCCN1C(=O)[C@@H]1CCCN1C(=O)[C@@H](NC(=O)[C@H](Cc1ccccc1)NC(=O)[C@H](CC(=O)O)NC(=O)[C@@H](NC(=O)[C@H](CC(=O)O)NC(=O)CNC(=O)[C@H](Cc1ccc(O)cc1)NC(=O)CNC(=O)c1ccc2c(c1)C(=O)OC21c2ccc(O)cc2Oc2cc(O)ccc21)[C@@H](C)O)C(C)C)C(=O)N[C@H](C(=O)N[C@@H](CO)C(=O)N[C@@H](C)C(=O)O)[C@@H](C)CC [BLM pS304, reference compound] (5FAM-GYGDTDFVPP[pS]PEEIISA-OH)
[10]; read-out: Kd
  Kd: 3460 ± 540 nM

From article PMC6175577, “BRCT domains of the DNA damage checkpoint proteins TOPBP1/Rad4 display distinct specificities for phosphopeptide ligands” (eLife, 2018)
